Measurements taken from patent publication US20050143450A1, “Alkyl PCDF as a treatment for prostate cancer” (priority 2002, published 2005).
Where two headings read alike, the source gives them in different places.

Experiments:
[1] = tested on: LNCaP prostate cancer cells; type: cell-based, human
Protocol: Cells were analyzed on a FACS Calibur (Becton Dickinson, San Jose, Calif.) flow cytometer, equipped with a 15 mW air-cooled argon laser, using CellQuest (Becton Dickinson) acquisition software. Propidium iodide (PI) fluorescence was collected through a 585/42-nm bandpass filter, and list mode data were acquired on a minimum of 12,000 single cells defined by a dot plot of PI-width versus PI-area. Data analysis was performed in ModFit LT (Verity Software House, Topsham, Me.) using PI-width versus PI-area to exclude cell aggregates.
The effects of TCDD on cell cycle progression was also determined in LNCaP cells treated with 1.0, 10 and 100 nM TCDD for 48 h followed by FACS analysis (Table 1).

LNCaP cells = type: cell-based, human
Protocol: After trypsinization and low-speed centrifugation, LNCaP cells were resuspended and counted using a Coulter cell counter (Beckman Coulter, Fullerton, Calif.). Cells were seeded at a density of 5×10^4/35-mm well using DME-F12 without phenol red, supplemented with 2.5% charcoal-stripped fetal bovine serum (FBS). Twenty-four hours after seeding, initial treatment was applied and then subsequently reapplied with fresh medium every two days until harvesting by trypsinization. Cells were counted after harvesting using a Coulter counter.

AhR = molecular target: T1, AhR (Homo sapiens, UniProt P35869); test: AhR activation, pDRE3 luciferase transient transfection in LNCaP cells; type: cell-based
T1 construct: LNCaP cells were transfected with pDRE3, treated with various compounds and luciferase activity was determined; endogenous in cells; host or cells: LNCaP
T1 sequence (P35869 11-848): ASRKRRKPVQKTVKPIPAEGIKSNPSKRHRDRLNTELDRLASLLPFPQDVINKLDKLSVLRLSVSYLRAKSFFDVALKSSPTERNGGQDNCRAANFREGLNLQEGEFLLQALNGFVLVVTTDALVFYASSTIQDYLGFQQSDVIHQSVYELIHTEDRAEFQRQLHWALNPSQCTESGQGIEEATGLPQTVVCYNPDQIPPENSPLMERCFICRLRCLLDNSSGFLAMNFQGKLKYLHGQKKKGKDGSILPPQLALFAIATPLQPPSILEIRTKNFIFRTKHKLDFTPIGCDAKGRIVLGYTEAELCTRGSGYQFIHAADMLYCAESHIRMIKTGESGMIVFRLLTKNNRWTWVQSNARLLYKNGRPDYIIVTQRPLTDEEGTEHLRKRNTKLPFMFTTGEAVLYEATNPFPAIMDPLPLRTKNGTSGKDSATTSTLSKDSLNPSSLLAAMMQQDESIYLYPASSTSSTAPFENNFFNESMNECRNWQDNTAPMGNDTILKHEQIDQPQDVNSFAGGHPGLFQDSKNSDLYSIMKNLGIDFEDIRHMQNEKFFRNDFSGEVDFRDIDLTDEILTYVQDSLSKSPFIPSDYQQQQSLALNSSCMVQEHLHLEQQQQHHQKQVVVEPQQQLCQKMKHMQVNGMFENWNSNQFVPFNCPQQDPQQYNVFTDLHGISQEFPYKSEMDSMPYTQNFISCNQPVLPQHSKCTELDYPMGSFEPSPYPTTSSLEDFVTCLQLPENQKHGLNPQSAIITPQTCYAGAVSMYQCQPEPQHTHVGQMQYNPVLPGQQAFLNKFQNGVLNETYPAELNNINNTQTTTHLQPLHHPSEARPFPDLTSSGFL
Protocol: (§1) After 24 h, cells were transfected using Lipofectamine and Plus reagents (Invitrogen) according to manufacturer's instructions. LNCaP and ZR-75 cells were transfected with 500 ng/well of either reporter plasmid, and 250 ng/well of pcDNA3.1-β-gal (Invitrogen) as the internal control. In addition, ZR-75 cells were transfected with 500 ng hAR. Twenty-four hours after treatment, cells were harvested by scraping with 200 μL/well of reporter lysis buffer. Lysates were centrifuged at 40,000 g and luciferase and β-galactosidase activity was assayed with 30 μL of the supernatant extract per sample using a Lumicount luminometer (PerkinElmer, Boston, Mass.). Luciferase activity was normalized to β-galactosidase activity for each transfection well.
LNCaP cells were transfected with pDRE3, treated with various compounds and luciferase activity was determined as described in the above Examples.

[2] = tested on: androgen-responsive probasin gene promoter (pPB); type: cell-based, human
Protocol: as §1, with “ZR-75 human breast cancer and LNCaP human prostate cancer cells were obtained from American Type Culture Collection (Manassas, Va.) and were maintained in RPMI 1640 medium supplemented with 10% FBS, 1% antibiotic/antimycotic solution, 1.5 g/L sodium bicarbonate, and 10 mM HEPES, final pH of 7.4. Cells were seeded at 2.75×10^5 per 22-mm well in DME-F12 without phenol red, supplemented with 2.5% charcoal-stripped fetal bovine serum (FBS). After” for “After”

AR [3] = test: AR protein levels in LNCaP cells by Western blot; type: cell-based, human; settings: 6 h
Protocol: Cells were harvested 6 h after treatment using 200 μL/22-mm well of ice cold lysis buffer (50 mM HEPES, pH 7.5, 500 mM NaCl, 10% (v/v) glycerol, 1% (v/v) Triton-X 100, 1.5 mM MgCl2, 1 mM EGTA) (McDougal et al., 2001). Lysates were centrifuged at 40,000 g, and supernatant was collected as extract. Whole cell extracts (50 μg/sample) were separated by electrophoresis on a tiered 7.5% (top)/12.5% (bottom) SDS-polyacrylamide gel and transferred to PVDF membrane (Bio-Rad, Richmond, Calif.). The membrane was blocked with 5% milk (m/v) in tris-buffered saline 0.05% Tween (TBST). Membranes were incubated with primary antibodies for AR (sc-7305), cyclin D1 (sc-718), or p27 (sc-528) (each from Santa Cruz Biotechnology, Santa Cruz, Calif.) at 1:1000 in 5% milk/TBST for 3 h. Membranes were washed twice in TBST. Horseradish peroxidase (HRP)-conjugated secondary antibodies were applied at 1:5000 in 5% milk/TBST for 1 h. After two TBST washes, PVDF-bounded antibodies were detected using a chemiluminescence kit (Western Lightning, PerkinElmer), ImageTek-H film (American X-Ray and Medical Supply, Rancho Cordova, Calif.) and an autoprocessor (Hope Macro-Med, Warminster, Pa.). Quantitation of the Western blot was performed using a Sharp JX-330 scanner (Sharp, Mahwah, N.J.) and Zero-D software (Scanalytics, Billerica, Mass.).

AR [4] = molecular target: T2, AR (Homo sapiens, UniProt P10275, T878A); type: cell-based; settings: LNCaP, pPB, HPTE 10 μM
T2 construct: AR protein levels in whole cell lysates were determined by Western blot analysis; endogenous in cells; host or cells: LNCaP
T2 sequence (P10275 1-920 T878A): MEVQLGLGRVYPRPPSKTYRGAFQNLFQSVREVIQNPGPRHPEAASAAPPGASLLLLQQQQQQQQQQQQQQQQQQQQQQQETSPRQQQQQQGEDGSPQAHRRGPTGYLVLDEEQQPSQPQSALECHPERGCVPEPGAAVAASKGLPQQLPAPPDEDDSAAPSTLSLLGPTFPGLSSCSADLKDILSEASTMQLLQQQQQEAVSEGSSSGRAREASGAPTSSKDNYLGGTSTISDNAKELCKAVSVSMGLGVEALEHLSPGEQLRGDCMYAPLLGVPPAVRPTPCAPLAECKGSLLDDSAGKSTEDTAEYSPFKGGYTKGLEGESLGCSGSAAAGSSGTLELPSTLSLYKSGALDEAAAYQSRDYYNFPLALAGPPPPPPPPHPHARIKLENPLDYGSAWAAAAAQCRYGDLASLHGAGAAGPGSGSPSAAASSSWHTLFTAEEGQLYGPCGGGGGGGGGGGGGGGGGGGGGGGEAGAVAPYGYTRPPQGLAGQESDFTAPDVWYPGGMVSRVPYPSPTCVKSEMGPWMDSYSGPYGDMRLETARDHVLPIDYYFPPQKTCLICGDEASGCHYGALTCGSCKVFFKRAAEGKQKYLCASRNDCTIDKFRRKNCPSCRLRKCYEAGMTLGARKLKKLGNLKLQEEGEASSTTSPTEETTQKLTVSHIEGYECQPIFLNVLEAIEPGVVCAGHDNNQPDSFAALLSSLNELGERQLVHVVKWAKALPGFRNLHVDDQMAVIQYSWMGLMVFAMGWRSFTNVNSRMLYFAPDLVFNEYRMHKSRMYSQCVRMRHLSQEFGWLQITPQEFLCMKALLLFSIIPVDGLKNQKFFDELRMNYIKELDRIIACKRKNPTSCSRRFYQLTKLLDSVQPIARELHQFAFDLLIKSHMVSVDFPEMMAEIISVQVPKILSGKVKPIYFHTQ
Protocol: as §1
The transfected cells were then treated with hormone or AhR agonist alone or in combination and luciferase activity was determined as described in the above examples.

AR [5] = molecular target: T2, AR; type: cell-based; settings: LNCaP
Protocol: as §1
Next, LNCaP cells were transfected with pARR3 construct that contained three tandem (3) copies of the probasin androgen response element. The transfected cells were treated with hormone or AhR agonist alone or in combination and luciferase activity was determined as described in the above examples.

`C[C@]12CCC(=O)C[C@@H]1CC[C@@H]1[C@@H]2CC[C@]2(C)[C@@H](O)CC[C@@H]12` [DHT, dihydrotestosterone] was tested. Which “Percent Distribution G0/G1” value [1] did it give?
Its value is 73.400 ± 1.179%.

What about the “Percent Distribution G2/M” value [1] of the same compound?
Its value is 9.433 ± 1.011%.

What about the “Percent Distribution S” value [1] of the same compound?
Its value is 17.167 ± 0.296%.

And the “cell cycle distribution, difference between solvent (DMSO) and DHT” value [1]?
Its value is “minimal differences”.

What about the hormone-induced cell growth (LNCaP cells) of the same compound?
Its hormone-induced cell growth is “not observed”.

And the “luciferase activity induction compared to solvent control (DMSO)” value (AhR; pDRE3, 10 nM)?
Its value is “did not significantly induce activity”.

What about the “effect on 6-MCDF-induced luciferase activity” value (AhR; pDRE3, hormone in combination with 6-MCDF) of the same compound?
The value was “significantly inhibited”.

And the reporter gene activity [2]?
Its reporter gene activity is “did not activate”.

With `C[C@]12CC[C@@H]3c4ccc(O)cc4CC[C@H]3[C@@H]1CC[C@@H]2O` [E2, 17β-estradiol] as the compound, how does the reporter gene activity ([2]; ZR-75 cells, pPB alone) read?
The reporter gene activity was “did not activate”.

Which “AR levels in combination with DHT compared to DHT alone” value (AR [3]) does the source give for `C[C@]12CC[C@@H]3c4ccc(O)cc4C[C@@H](CCCCCCCCC[S+]([O-])CCCC(F)(F)C(F)(F)F)[C@H]3[C@@H]1CC[C@@H]2O` (stereo partly shown) [ICI 182780] here?
Its value is “not decreased”.

What about the “AR levels in combination with E2 compared to E2 alone” value (AR [3]) of the same compound?
The value was “not decreased”.

What about the “AR protein levels, compound alone” value (AR [3]; DHT 10 nM, E2 10 nM, TCDD 10 nM, 6-MCDF 2 μM, HPTE 10 μM) of the same compound?
The value was “increased”.

And the “effect on DHT-induced luciferase activity” value (AR [4]; cotreatment with 10 nM DHT, MCDF 2 μM)?
The value was “only minimal inhibition”.

What about the “effect on E2-induced luciferase activity” value (AR [4]; cotreatment with 10 nM E2) of the same compound?
Its value is “significantly inhibited”.

And the “effect on DHT-induced luciferase activity” value (AR [5]; pARR3, cotreatment with DHT)?
Its value is “inhibited”.

What about the “effect on E2-induced luciferase activity” value (AR [5]; pARR3, cotreatment with E2) of the same compound?
Its value is “inhibited”.
